Reference: a compilation of properties of binary mixtures (doi:10.1016/j.molliq.2014.07.031)

Experiment: xn = mol fraction of the nth substance listed
Settings: 101 kPa

CCCCCC[n+]1ccn(C)c1.[I-] + [I-].[Li+]
Settings | electrical conductivity, x1 = 0.32 [S/m] | electrical conductivity, x1 = 0.59 [S/m] | viscosity, x1 = 0.32 [mPa·s] | viscosity, x1 = 0.59 [mPa·s] | viscosity, x1 = 1 [mPa·s]
288.1 K | 0.0025 | 0.0002 | – | – | –
293 K | 0.0046 | 0.0005 | – | – | 2633
298.1 K | 0.0086 | – | – | – | 1742
303 K | 0.011 | 0.0019 | – | 7760 | –
308.1 K | 0.0189 | – | – | – | 802
313 K | 0.032 | 0.0054 | – | 2420 | 564
318.1 K | 0.0536 | 0.0086 | – | 1470 | 405
323 K | 0.0894 | 0.0133 | – | 989 | 279
328.1 K | 0.145 | 0.0206 | – | 682 | –
333 K | – | 0.0301 | – | 491 | 164
338.1 K | – | 0.0428 | – | 359 | 123.6
343 K | 0.504 | 0.0601 | 380 | 272 | 100.4
348.1 K | – | 0.082 | – | 219 | 79.9
353 K | 0.842 | 0.109 | 225 | 179 | 64.6
358.1 K | 1.04 | 0.142 | 177 | 144.7 | 52.1
363 K | 1.27 | 0.182 | 144.7 | 119.9 | 42
368.1 K | 1.61 | 0.232 | 124.1 | 101.5 | –
373 K | – | 0.287 | – | – | –
